The text below walks through data of patent US12048678B2, “Compounds for treating myelin related disorders” (Case Western Reserve University, priority 2018, dated 2024).

“Also recorded” adds a separate entry of the source.

The subject of test [1] is oligodendrocyte progenitor cells (OPCs), OPC-5. The experiment in a line: Differentiation of OPCs to MBP+ oligodendrocytes (in vitro phenotypic screening, high-content imaging). The test is classed as cell-based, mouse. The procedure:
To rigorously assess effects of small molecule and genetic treatments on OPCs, all treatments were assayed in two batches of epiblast stem cell-derived OPCs, and key results were confirmed using mouse primary OPCs. OPCs were generated from two separate EpiSC lines, EpiSC5 (giving rise to OPC-5 OPCs) and 12901 (giving rise to OPC-1 OPCs). EpiSC-derived OPCs were obtained using in vitro differentiation protocols and culture conditions described previously. To ensure uniformity throughout all in vitro screening experiments, EpiSC-derived OPCs were sorted to purity by fluorescence activated cell sorting at passage five with conjugated CD 140a-APC (eBioscience, 17-1401; 1:80) and NG2-AF488 (Millipore, AB5320A4; 1:100) antibodies. Sorted batches of OPCs were expanded and frozen down in aliquots. OPCs were thawed into growth conditions for one passage before use in further assays. Cultures were regularly tested and shown to be mycoplasma free.
EpiSC-derived OPCs were grown and expanded in poly-ornithine (PO) and laminin-coated flasks with growth medium (DMEM/F12 supplemented with N2-MAX (R&D Systems), B-27 (ThermoFisher), GlutaMax (Gibco), FGF2 ([…], R&D systems, 233-FB-025) and PDGF-AA ([…], R&D systems, 233-AA-050) before harvesting for plating. The cells were seeded onto poly-D-lysine 96-well CellCarrier or CellCarrierUltra plates (PerkinElmer) coated with laminin (Sigma, L2020; 15 μg/ml) using multi-channel pipet. For the experiment, 800,000 cells/mL stock in differentiation medium (DMEM/F12 supplemented with N2-MAX and B-27) was prepared and stored on ice for 2 h. Then, 40,000 cells were seeded per well in differentiation medium and allowed to attach for 30 min before addition of drug. For dose-response testing of all molecules except sterols, a 1000× compound stock in dimethyl sulphoxide (DMSO) was added to assay plates with 0.1 μL solid pin multi-blot replicators (V & P Scientific; VP 409), resulting in a final primary screening concentration of 1×. Cells were incubated under standard conditions (37° C., 5% CO2) for 3 days and fixed with 4% paraformaldehyde (PFA) in phosphate buffered saline (PBS) for 20 min. Fixed plates were washed with PBS (200 μL per well) twice, permeabilized with 0.1% Triton X-100 and blocked with 10% donkey serum (v/v) in PBS for 40 min. Then, cells were labelled with MBP antibodies (Abcam, ab7349; 1:200) for 16 h at 4° C. followed by detection with Alexa Fluor conjugated secondary antibodies (1:500) for 45 min. Nuclei were visualized by DAPI staining (Sigma; 1 μg/ml). During washing steps, PBS was added using a multi-channel pipet and aspiration was performed using Biotek EL406 washer dispenser (Biotek) equipped with a 96-well aspiration manifold.
Plates were imaged on the Operetta High Content Imaging and Analysis system (PerkinElmer) and a set of 6 fields captured from each well resulting in an average of 1200 cells being scored per well. Analysis (PerkinElmer Harmony and Columbus software) began by identifying intact nuclei stained by DAPI; that is, those traced nuclei that were larger than 300 μm2 in surface area. Each traced nucleus region was then expanded by 50% and cross-referenced with the […] (MBP) stain to identify oligodendrocyte nuclei, and from this the percentage of oligodendrocytes was calculated.

The next test addresses T1, EBP (Mus musculus, UniProt P70245).
T1 construct: active EBP was obtained from mouse microsomes; from tissue
T1 sequence (P70245 1-230): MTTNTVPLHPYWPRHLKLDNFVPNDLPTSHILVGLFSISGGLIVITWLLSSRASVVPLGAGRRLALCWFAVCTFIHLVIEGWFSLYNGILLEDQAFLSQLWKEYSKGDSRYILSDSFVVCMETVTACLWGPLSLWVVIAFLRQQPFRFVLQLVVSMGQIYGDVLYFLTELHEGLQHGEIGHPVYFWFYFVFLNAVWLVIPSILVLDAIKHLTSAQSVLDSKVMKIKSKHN
The test can be described thus: EBP enzymatic assay. Format: biochemical. The following applies: 10 μM, FIG. 4a. The protocol:
EBP enzymatic activity was measured using a reported method with slight modifications: active EBP was obtained from mouse microsomes, inhibitors were added, zymostenol was added at a final concentration of 25 μM in a final reaction volume of 500 μl, and the reaction incubated at 37° C. for 2 h. Sterols were extracted using 3×1 ml hexanes, cholesterol-d7 was added to enable quantitation, and the pooled organics were dried (Na2SO4) and evaporated under nitrogen gas. Samples were then silylated and analyzed using GC/MS as described above.

Another test addresses kappa opioid receptor (Homo sapiens, UniProt P41145). The experiment in a line: k-Opioid receptor agonism assay (Tango  U2OS cells). The test is classed as cell-based. To be noted: Compound 1 at 1 μM, TASIN-1 100 nM, U50488 2 μM.

Sequence of kappa opioid receptor (P41145 whole entry): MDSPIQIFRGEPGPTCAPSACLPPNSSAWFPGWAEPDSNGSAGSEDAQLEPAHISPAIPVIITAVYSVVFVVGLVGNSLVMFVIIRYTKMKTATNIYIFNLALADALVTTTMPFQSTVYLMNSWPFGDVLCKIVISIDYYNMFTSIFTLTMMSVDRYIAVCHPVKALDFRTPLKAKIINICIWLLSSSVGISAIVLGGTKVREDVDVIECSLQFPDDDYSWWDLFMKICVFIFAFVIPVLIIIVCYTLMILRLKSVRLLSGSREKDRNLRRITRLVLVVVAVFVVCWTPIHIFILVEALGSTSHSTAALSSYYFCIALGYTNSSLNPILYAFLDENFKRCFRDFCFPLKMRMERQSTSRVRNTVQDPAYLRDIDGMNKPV

As for `c1ccc(-c2ccc(CN3CCCCCCC3)cc2)cc1` [Compound 1], the activation at 0.03 µM in test [1] (Mus musculus, Oligodendrocyte progenitor cell, 0.03 μM, 72 h treatment, read-out: % enhancement of MBP+ oligodendrocyte generation at 0.03 μM concentration) lay in the range of 20 to 30%. For the same compound, the activation at 0.1 µM in test [1] (Mus musculus, Oligodendrocyte progenitor cell, 0.1 μM, 72 h treatment, read-out: % enhancement of MBP+ oligodendrocyte generation at 0.1 μM concentration) was greater than 40%. Further, the activation at 0.3 µM in test [1] (Mus musculus, Oligodendrocyte progenitor cell, 0.3 μM, 72 h treatment, read-out: % enhancement of MBP+ oligodendrocyte generation at 0.3 μM concentration) was greater than 40%. In addition, the activation at 1 µM in test [1] (Mus musculus, Oligodendrocyte progenitor cell, 1 μM, 72 h treatment, read-out: % enhancement of MBP+ oligodendrocyte generation at 1 μM concentration) was greater than 40%. In test [1] (OPC-5, FIGS. 2a-2c), the “enhancement of oligodendrocyte formation (in words)” value is listed as “near maximal effects observed at 110 nM; also recorded: near maximal effects on oligodendrocyte formation at 110 nM”. Moreover, the “EBP inhibition in an in vitro enzymatic assay” value on EBP is recorded as “enhanced potency for EBP inhibition”. In addition, the “effect in cell-based assay for the kappa opioid receptor” value on kappa opioid receptor was “little affinity”.
